Results taken from ChEMBL document CHEMBL1201862, “PubChem BioAssay data set” (2004).
“And” between values parts separate entries of the source, which are not always exact repeats. Equal entries are not always repeated.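 Each compound was tested at five concentrations against cells in 96-well plates for 48 hours. GI50 marks 50% less growth.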 The source made the active and inactive calls. Cut-off read from the data, not from the text of the source: active = GI50 up to about 1.1 µM and inactive = higher.

Key:
Experiment in all cases: NCI-60 cell line screen, 48 h
[1] = tested on: A498
[2] = tested on: BT-549
[3] = tested on: DLD-1
[4] = tested on: DMS-114
[5] = tested on: DMS-273
[6] = tested on: DU-145
[7] = tested on: HCC 2998
[8] = tested on: HOP-18
[9] = tested on: HOP-62
[10] = tested on: KM-20L2
[11] = tested on: LXFL 529
[12] = tested on: M14
[13] = tested on: M19-MEL
[14] = tested on: MCF7
[15] = tested on: MDA-MB-231
[16] = tested on: MDA-N
[17] = tested on: Malme-3M
[18] = tested on: NCI/ADR-RES
[19] = tested on: RXF 631
[20] = tested on: SF-295
[21] = tested on: SK-MEL-28
[22] = tested on: SN12C
[23] = tested on: SNB-19
[24] = tested on: SNB-75
[25] = tested on: SNB-78
[26] = tested on: T47D
[27] = tested on: U-251
[28] = tested on: UACC-62
[29] = tested on: UO-31
[30] = tested on: XF498

CN(C)C(=S)SSC(=S)N(C)C [THIRAM]
GI50 [1]: 45.8 µM (inactive) and > 60 µM (inactive) | GI50 [2]: 17.2 µM (inactive) and 14.2 µM (inactive) | GI50 [3]: 2.59 µM (inactive) | GI50 [4]: 0.124 µM (active) | GI50 [5]: 0.285 µM (active) | GI50 [6]: 47.1 µM (inactive) and 37.7 µM (inactive) | GI50 [7]: 16.7 µM (inactive) and 29.3 µM (inactive) | GI50 [8]: > 100 µM (inactive) | GI50 [9]: > 67.9 µM (inactive) | GI50 [10]: 1.64 µM (inactive) | GI50 [11]: 1.98 µM (inactive) | GI50 [12]: 17.3 µM (inactive) and 20.6 µM (inactive) | GI50 [13]: 0.581 µM (active) | GI50 [14]: 20.8 µM (inactive) and 17.7 µM (inactive) | GI50 [15]: 16.8 µM (inactive) and 20.2 µM (inactive) | GI50 [16]: 19.1 µM (inactive) and 14.1 µM (inactive) | GI50 [17]: 20.2 µM (inactive) and 12.4 µM (inactive) | GI50 [18]: 17.2 µM (inactive) | GI50 [19]: 42.2 µM (inactive) | GI50 [20]: 21 µM (inactive) and 28.6 µM (inactive) | GI50 [21]: 13 µM (inactive) and 23.8 µM (inactive) | GI50 [22]: 36.4 µM (inactive) and 24.3 µM (inactive) | GI50 [23]: > 57.8 µM (inactive) and 54.6 µM (inactive) | GI50 [24]: 28.1 µM (inactive) and 36 µM (inactive) | GI50 [25]: > 75.5 µM (inactive) | GI50 [26]: 26.2 µM (inactive) and 18.3 µM (inactive) | GI50 [27]: 14.3 µM (inactive) and 17.9 µM (inactive) | GI50 [28]: 3.52 µM (inactive) and 2.3 µM (inactive) | GI50 [29]: > 46.5 µM (inactive) and 31.9 µM (inactive) | GI50 [30]: 4.48 µM (inactive)
